We go through 28 compounds from patent US20250179061A1 (SIRONAX LTD., priority 2022, published 2025).

SMILES strings stand for the structures. Some results are limits rather than exact numbers.

This experiment relates to HT-29 cells. The experiment can be described thus: HT-29 necroptosis cell viability assay (TNF-α/SMAC mimetic/zVAD-FMK, CellTiter-Glo). The note with it: Homo sapiens, HT-29, HT-29 necroptosis cell viability assay; class symbols for IC50; read-out: Activity. It counts as cell-based. The essentials:
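HT-29 cells (~5,000/well, overnight) in FBS-free McCoy's 5A with TNF-α 10 ng/ml, SMAC mimetic 6 μM and zVAD-FMK 10 μM plus 10-point 1:3 compound titration, 20 h at 37°C. ATP measured by CellTiter-Glo luminescence; IC50 as geometric mean of duplicates.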

Turning to `Cc1nc(C#N)sc1Oc1ccc(-n2ncn(Cc3ncccc3Cl)c2=O)cc1F` [Example 576, 5-(4-(4-((3-chloropyridin-2-yl)methyl)-5-oxo-4,5-dihydro-1H-1,2,4-triazol-1-yl)-2-fluorophenoxy)-4-methylthiazole-2-carbonitrile], the IC50 was less than 100 nM.
The figure for `CCC(O)(CC)c1nc(C)c(Oc2ccc(-n3ncn(Cc4c(F)cccc4F)c3=O)cc2)s1` [Example 577, 4-(2,6-difluorobenzyl)-2-(4-((2-(3-hydroxypentan-3-yl)-4-methylthiazol-5-yl)oxy)phenyl)-2,4-dihydro-3H-1,2,4-triazol-3-one] is less than 100 nM.
`Cc1csc(Cn2cnn(-c3ccc(Oc4sc(C(C)(C)O)nc4C)c(F)c3)c2=O)n1` [Example 578, 2-(3-fluoro-4-((2-(2-hydroxypropan-2-yl)-4-methylthiazol-5-yl)oxy)phenyl)-4-((4-methylthiazol-2-yl)methyl)-2,4-dihydro-3H-1,2,4-triazole-3-one]: the IC50 is 100 to 1000 nM.
As for `Cc1nc(C(C)(C)O)sc1Oc1ccc(-n2ncn(Cc3c(F)cccc3C#N)c2=O)cc1F` [Example 579, 3-fluoro-2-((1-(3-fluoro-4-((2-(2-hydroxypropan-2-yl)-4-methylthiazol-5-yl)oxy)phenyl)-5-oxo-1,5-dihydro-4H-1,2,4-triazol-4-yl)methyl)benzonitrile], the IC50 was less than 100 nM.
The figure for `Cc1nc(C2(O)CC2)sc1Oc1ccc(-n2ncn(Cc3c(F)cccc3F)c2=O)cc1` [Example 580, 4-(2,6-difluorobenzyl)-2-(4-((2-(1-hydroxycyclopropyl)-4-methylthiazol-5-yl)oxy)phenyl)-2,4-dihydro-3H-1,2,4-triazol-3-one] is less than 100 nM; for `CCC(O)(CC)c1nc(C)c(Oc2ccc(-n3ncn(Cc4c(F)cccc4F)c3=O)cc2F)s1` [Example 581, 4-(2,6-difluorobenzyl)-2-(3-fluoro-4-((2-(3-hydroxypentan-3-yl)-4-methylthiazol-5-yl)oxy)phenyl)-2,4-dihydro-3H-1,2,4-triazol-3-one] it is less than 100 nM; for `Cc1nc(C2(O)CC2)sc1Oc1ccc(-n2ncn(Cc3c(F)cccc3F)c2=O)cc1F` [Example 582, 4-(2,6-difluorobenzyl)-2-(3-fluoro-4-((2-(1-hydroxycyclopropyl)-4-methylthiazol-5-yl)oxy)phenyl)-2,4-dihydro-3H-1,2,4-triazol-3-one] it is less than 100 nM.
The figure for `Cc1nc(C(C)(C)O)sc1Oc1ccc(-n2ncn(Cc3c(F)cccc3F)c2=O)cc1Cl` [Example 583, 2-(3-chloro-4-((2-(2-hydroxypropan-2-yl)-4-methylthiazol-5-yl)oxy)phenyl)-4-(2,6-difluorobenzyl)-2,4-dihydro-3H-1,2,4-triazol-3-one] is less than 100 nM; for `Cc1nc(C(C)(C)O)sc1Oc1ccc(-n2ncn(Cc3ccccc3C#N)c2=O)cc1F` [Example 584, 2-((1-(3-fluoro-4-((2-(2-hydroxypropan-2-yl)-4-methylthiazol-5-yl)oxy)phenyl)-5-oxo-1,5-dihydro-4H-1,2,4-triazol-4-yl)methyl)benzonitrile] it is 100 to 1000 nM; for `Cc1nc(C2(O)COC2)sc1Oc1ccc(-n2ncn(Cc3c(F)cccc3F)c2=O)cc1F` [Example 585, 4-(2,6-difluorobenzyl)-2-(3-fluoro-4-((2-(3-hydroxyoxetan-3-yl)-4-methylthiazol-5-yl)oxy)phenyl)-2,4-dihydro-3H-1,2,4-triazol-3-one] it is less than 100 nM.
Consider `Cc1nc(C2(O)CCC2)sc1Oc1ccc(-n2ncn(Cc3c(F)cccc3F)c2=O)cc1F` [Example 586, 4-(2,6-difluorobenzyl)-2-(3-fluoro-4-((2-(1-hydroxycyclobutyl)-4-methylthiazol-5-yl)oxy)phenyl)-2,4-dihydro-3H-1,2,4-triazol-3-one], for which the IC50 was less than 100 nM.
The figure for `Cc1nc(C(=O)N2C[C@H](N)[C@@H]2C)sc1Oc1ccc(-n2ncn(Cc3ccccc3F)c2=O)cc1F` [Example 587, 2-(4-((2-((2S,3S)-3-amino-2-methylazetidine-1-carbonyl)-4-methylthiazol-5-yl)oxy)-3-fluorophenyl)-4-(2-fluorobenzyl)-2,4-dihydro-3H-1,2,4-triazol-3-one] is less than 100 nM; for `Cc1nc(C(=O)N2C[C@H](O)[C@@H]2C)sc1Oc1ccc(-n2ncn(Cc3c(F)cccc3F)c2=O)cc1F` [Example 588, 4-(2,6-difluorobenzyl)-2-(3-fluoro-4-((2-((2S,3S)-3-hydroxy-2-methylazetidine-1-carbonyl)-4-methylthiazol-yl)oxy)phenyl)-2,4-dihydro-3H-1,2,4-triazol-3-one] it is less than 100 nM.
The figure for `CNC(=O)c1nc(C)c(Oc2ccc(-n3ncn(Cc4ncccc4Cl)c3=O)cc2F)s1` [Example 589, 5-(4-(4-((3-chloropyridin-2-yl)methyl)-5-oxo-4,5-dihydro-1H-1,2,4-triazol-1-yl)-2-fluorophenoxy)-N,4-dimethylthiazole-2-carboxamide] is less than 100 nM; for `Cc1nc(C(N)=O)sc1Oc1ccc(-n2ncn(Cc3ncccc3Cl)c2=O)cc1F` [Example 590, 5-(4-(4-((3-chloropyridin-2-yl)methyl)-5-oxo-4,5-dihydro-1H-1,2,4-triazol-1-yl)-2-fluorophenoxy)-4-methylthiazole-2-carboxamide] it is less than 100 nM.
The result for `Cc1nc(C(=O)N2CC(C)(N)C2)sc1Oc1ccc(-n2ncn(Cc3ccccc3F)c2=O)cc1F` [Example 591, 2-(4-((2-(3-amino-3-methylazetidine-1-carbonyl)-4-methylthiazol-5-yl)oxy)-3-fluorophenyl)-4-(2-fluorobenzyl)-2,4-dihydro-3H-1,2,4-triazol-3-one] reads less than 100 nM.
Regarding `Cc1nc(C(=O)N2CC(C#N)C2)sc1Oc1ccc(-n2ncn(Cc3ccccc3F)c2=O)cc1F` [Example 592, 1-(5-(2-fluoro-4-(4-(2-fluorobenzyl)-5-oxo-4,5-dihydro-1H-1,2,4-triazol-1-yl)phenoxy)-4-methylthiazole-2-carbonyl)azetidine-3-carbonitrile], the IC50 is less than 100 nM.
The figure for `Cc1nc(C(=O)N2CC(O)C2)sc1Oc1ccc(-n2ncn(Cc3ccccc3F)c2=O)cc1F` [Example 593, 2-(3-fluoro-4-((2-(3-hydroxyazetidine-1-carbonyl)-4-methylthiazol-5-yl)oxy)phenyl)-4-(2-fluorobenzyl)-2,4-dihydro-3H-1,2,4-triazol-3-one] is less than 100 nM; for `Cc1nc(C(=O)NO)sc1Oc1ccc(-n2ncn(Cc3ccccc3F)c2=O)cc1F` [Example 594, 5-(2-fluoro-4-(4-(2-fluorobenzyl)-5-oxo-4,5-dihydro-1H-1,2,4-triazol-1-yl)phenoxy)-N-hydroxy-4-methylthiazole-2-carboxamide] it is 100 to 1000 nM; for `CNC(=O)c1nc(C)c(Oc2ccc(-n3ncn(Cc4ccccc4F)c3=O)cc2F)s1` [Example 595, 5-(2-fluoro-4-(4-(2-fluorobenzyl)-5-oxo-4,5-dihydro-1H-1,2,4-triazol-1-yl)phenoxy)-N,4-dimethylthiazole-2-carboxamide] it is less than 100 nM.
Turning to `Cc1nc(C(=O)NN)sc1Oc1ccc(-n2ncn(Cc3ccccc3F)c2=O)cc1F` [Example 596, 5-(2-fluoro-4-(4-(2-fluorobenzyl)-5-oxo-4,5-dihydro-1H-1,2,4-triazol-1-yl)phenoxy)-4-methylthiazole-2-carbohydrazide], the IC50 was less than 100 nM.
For the compound `Cc1nc(C(=O)N2CC(C)(O)C2)sc1Oc1ccc(-n2ncn(Cc3c(F)cccc3F)c2=O)cc1F` [Example 597, 4-(2,6-difluorobenzyl)-2-(3-fluoro-4-((2-(3-hydroxy-3-methylazetidine-1-carbonyl)-4-methylthiazol-5-yl)oxy)phenyl)-2,4-dihydro-3H-1,2,4-triazol-3-one], the IC50 is less than 100 nM.
As for `Cc1nc(C(=O)N2CC(NC(=O)OC(C)(C)C)C2)sc1Oc1ccc(-n2ncn(Cc3ccccc3F)c2=O)cc1F` [Example 598, tert-butyl (1-(5-(2-fluoro-4-(4-(2-fluorobenzyl)-5-oxo-4,5-dihydro-1H-1,2,4-triazol-1-yl)phenoxy)-4-methylthiazole-2-carbonyl)azetidin-3-yl)carbamate], the IC50 is less than 100 nM.
`CNC(=O)c1nc(C)c(Oc2ccc(-n3ncn(Cc4cnccc4Cl)c3=O)cc2F)s1` [Example 599, 5-(4-(4-((4-chloropyridin-3-yl)methyl)-5-oxo-4,5-dihydro-1H-1,2,4-triazol-1-yl)-2-fluorophenoxy)-N,4-dimethylthiazole-2-carboxamide]: the IC50 was less than 100 nM.
The figure for `Cc1nc(C(=O)N2CC(N)C2)sc1Oc1ccc(-n2ncn(Cc3ccccc3F)c2=O)cc1F` [Example 600, 2-(4-((2-(3-aminoazetidine-1-carbonyl)-4-methylthiazol-5-yl)oxy)-3-fluorophenyl)-4-(2-fluorobenzyl)-2,4-dihydro-3H-1,2,4-triazol-3-one] is less than 100 nM.
The figure for `Cc1nc(C(=O)NC2COC2)sc1Oc1ccc(-n2ncn(Cc3ccccc3F)c2=O)cc1F` [Example 603, 5-(2-fluoro-4-(4-(2-fluorobenzyl)-5-oxo-4,5-dihydro-1H-1,2,4-triazol-1-yl)phenoxy)-4-methyl-N-(oxetan-3-yl)thiazole-2-carboxamide] is less than 100 nM; for `Cc1nc(C(=O)NCC2COC2)sc1Oc1ccc(-n2ncn(Cc3ccccc3F)c2=O)cc1F` [Example 604, 5-(2-fluoro-4-(4-(2-fluorobenzyl)-5-oxo-4,5-dihydro-1H-1,2,4-triazol-1-yl)phenoxy)-4-methyl-N-(oxetan-3-ylmethyl)thiazole-2-carboxamide] it is less than 100 nM; for `Cc1nc(C(=O)N2CC3(COC3)C2)sc1Oc1ccc(-n2ncn(Cc3ccccc3F)c2=O)cc1F` [Example 605, 2-(3-fluoro-4-((4-methyl-2-(2-oxa-6-azaspiro[3.3]heptane-6-carbonyl)thiazol-5-yl)oxy)phenyl)-4-(2-fluorobenzyl)-2,4-dihydro-3H-1,2,4-triazol-3-one] it is less than 100 nM.
